Results from patent publication US20250122253A1, “REGULATING MICROTUBULE DYNAMICS AS A THERAPEUTIC TARGET FOR NERVE REPAIR” (City University of Hong Kong, priority 2023, published 2025).

Tests used:
[1] = test system: sensory function of injured hindlimb; experiment: Pinprick assay (sensory function recovery) after sciatic nerve crush; format: in vivo, mice
Method: (§1) Adult male Fmn2^−/− mice (8-12 weeks old) and their age-matched WT littermates, or adult male C57BL/6 mice (for whole-body X-ray, AAV2/9-Fmn2-shRNA and metaxalone experiments) were trained and habituated one week before the sciatic nerve crush injury. After three independent training sessions (30 minutes per session with two days break), baseline values were taken, and sciatic nerve crush injury were performed one day after the baseline recordings. Function recovery was monitored for 30 days. On day 3 after the sciatic nerve crush, we first perform pinprick assay and followed by motor function assays every other day in a sequential manner (toe spreading, grip strength, and sciatic functional index) with 30 mins apart from each test. Animal behavioural tests were done blinded to the surgery and genotypes.
Mice were placed singly in small wire-mesh cages for 30-minutes habituation, an insect pin (Fine Science Tools) were applied to the lateral plantar surface of the ipsilateral hindlimb from toe to heel. The lateral planar surface was divided into 5 different areas, from the most distal toe (score=5) to the heel (score=1). The mouse was scored for that area if a brisk withdrawal response of hind paw was observed. The mouse was scored 0 if no withdrawal responses were observed after insect pin was applied to all 5 areas. Saphenous innervated area of the same hindlimb was tested as a positive control if there was no positive response from these five areas. Two rounds of pinprick assay were performed (with a 30-minute time interval) in each mouse to confirm the score.
(§2) To examine the therapeutic potential of metaxalone, adult mice received daily intraperitoneal injection of metaxalone at 10 mg/kg immediately after injury for 21 consecutive days (i.e., metaxalone treatment) or delaying daily intraperitoneal injection of metaxalone at 10 mg/kg to 24 hours post-injury for 20 consecutive days (i.e., delayed metaxalone treatment), and all metaxalone treatments ended on day 21 post-injury. The mice were then subjected to sensory and motor function recovery tests and weekly EMG recordings for 28 days post-injury.

[2] = test system: hindlimb muscle strength; experiment: Hindlimb grip strength measurement after sciatic nerve crush; format: in vivo, mice; details: from day 11 to 23
Method: as §1
Muscle strength from hindlimbs were measured using a grip strength meter (BIO-GS3, Bioseb). To measure the grip strength of both hindlimbs, their hindlimbs were positioned to grip a metal T-bar connected to the grip strength meter, while their forelimbs were rested on a plastic bar. The mice were then gently pulled off from the T-bar. The values at which the mouse left the T-bar reflected the grip strength in grams. The average grip strength was taken from at least 5 consecutive grip strength measurements per animal. […]

[3] = test system: motor function of injured hindlimb; experiment: Toe spreading reflex (motor function recovery) after sciatic nerve crush; format: in vivo, mice
Method: as §1
To assess toe spreading reflex following PNI, mice were covered by a piece of cotton, lifted up by the tails, and uncovered their hindlimbs for assessment. Toe spreading reflex was scored as follow: 0 for no spreading, 1 for intermediate spreading with all toes separated for less than 2 seconds, and 2 for full spreading with all toes completely and widely spread, and sustained for at least two seconds. Mice were scored only when a full response was observed on the contralateral side (uninjured hindlimbs). Mice were assessed twice with 30-minute time interval in between.
as §2

[4] = cited from earlier work
[5] = test system: gastrocnemius and interosseous muscles; experiment: Electromyography (EMG) recording of CMAP amplitude; format: in vivo, mice
Method: Electromyography (EMG) recording was performed on anesthetized mice as described. Briefly, mice were anesthetized with ketamine (100 mg/kg)/xylazine (10 mg/kg), and placed on a heat pad set to 37° C. to avoid hypothermia during the course of EMG recordings. Baseline EMG were recorded before sciatic nerve crush injury using custom-made monopolar Teflon-coated electrodes. Following sciatic nerve crush injury, EMG were recorded on a weekly basis for one month (days 7, 14, 21 and 28). For EMG recordings of proximal gastrocnemius muscle, recording electrode was inserted into the gastrocnemius muscle, and Achilles tendon electrode as a reference. For EMG recordings of distal interosseous muscle, recording electrode and reference electrode was inserted into first and fourth muscle of the same paw, respectively. Sciatic nerve was then stimulated proximally or distally, and both proximal and distal stimulations were used for CMAP of interosseous muscle. Only proximal stimulation was used for CMAP of the gastrocnemius muscle. The mean CMAP amplitude was recorded (Blackrock microsystem, USA) and calculated (Spike 2, UK).
as §2

[6] = test system: SCG10-positive regenerating axons of sciatic nerve; experiment: Quantification of in vivo axon regeneration by SCG10 immunostaining (regeneration index); parameters: species or system mice; details: 3 days post-injury
Method: Mice were perfused transcardially with 4% PFA, and L4/5 DRGs and sciatic nerves were harvested, post-fixed, cryoprotected and frozen in OCT compound (Tissue-Tek). For regenerating axon quantification, 12-μm thick longitudinal serial sections of sciatic nerve were blocked with 0.5% BSA/0.1% Triton X-100 (Sigma-Aldrich), and incubated with anti-SCG10 (a marker for regenerating sensory axons; 1:5,000; Novus Biologicals) primary antibodies. The sections were then incubated with secondary antibody conjugated with Alexa Fluor 555 (1:300; Molecular Probes). A series of z-stack images were taken at 20× magnifications using Nikon AXR confocal microscope equipped with a motorized stage and a resonant scanner, stitched, and maximally projected using NIS-Elements software.
To quantify regenerating axons, the SCG10 fluorescence intensity was measured at different distal distances away from the crush site using a line scan macro in ImageJ (NIH). A fluorescence intensity profile of SCG10 immunoreactivity was plotted by averaging the SCG10 intensity from 100 neighbouring pixels and normalized to that measured in the crushed site with maximal SCG10 immunoreactivity. For each mouse, at least 3 non-overlapping sections (at least 36 μm apart) were used and averaged from 12-15 sections per genotype or treatment group (n=4-5 per genotype or treatment group).

[7] = test system: gait movement; experiment: Sciatic functional index (SFI) walking track analysis; format: in vivo, mice; details: 15 days post-injury
Method: as §1
The walking track analysis was performed by training the mice to walk down a narrow corridor covered with white paper strip (10×60 cm) and the hindlimbs of the mice were pained with red water colour. […] The SFI values were calculated from footprints as follows: • […](experimental print length−naïve print length)/naïve print length+109.5×(experimental toe spread−naïve toe spread)/naïve toe spread+13.3×(experimental intermediary toe spread−naïve intermediary toe spread)/naïve intermediary toe spread−8.8. […]

[8] = 10 mg/kg intraperitoneally delayed to 24 hours post-injury
[9] = 10 mg/kg intraperitoneally immediately after PNI

Cc1cc(C)cc(OCC2CNC(=O)O2)c1 (stereo not shown) [metaxalone]
initial response to pinprick stimuli (reaching score 1), delayed treatment ([1]; 10 mg/kg intraperitoneally daily, delayed to 24 hours post-injury, 20 days): 10 day post-injury
full sensory pinprick response regained earlier than vehicle controls, delayed treatment [1, 8]: 2 days
full sensory pinprick response regained earlier than vehicle controls [1, 9]: 4 days
initial response to pinprick stimuli (reaching score 1) ([1]; 10 mg/kg intraperitoneally once a day immediately after PNI for 21 days): 9 day post-injury
hindlimb grip strength recovery vs controls ([2]; immediate treatment 10 mg/kg): significantly higher
hindlimb grip strength recovery vs controls, delayed treatment ([2]; treatment delayed 24 hours, 10 mg/kg): significantly higher
additional time vs metaxalone-treated mice to recover 50% and to fully regain toe spreading reflex, delayed treatment [3, 8]: 1 days
time to fully regain toe spreading reflex [3, 9]: 19 days
time to recover 50% of toe spreading reflex (reaching score 1) [3, 9]: 14 days
half-life [4]: 9 h
muscle activities in proximal gastrocnemius vs vehicle controls, delayed treatment ([5]; delayed treatment, week 1 to 3 post-injury): significant improvement
muscle activity in interosseous muscles vs vehicle controls, delayed treatment ([5]; delayed treatment, week 2-3 post-injury): significant increase
muscle activity in most distal interosseous muscles vs vehicle controls ([5]; immediate treatment, first 3 weeks post-injury): reached significance levels
muscle activities in proximal gastrocnemius vs vehicle controls ([5]; immediate treatment, week 1 to 3 post-injury): significant improvement
regeneration index at the region over 4.5 mm, delayed treatment ([6]; treatment delayed by 24 hours): 0.40
regeneration index at the region over 4.5 mm ([6]; treatment immediately after injury): 0.34
number of SCG10-positive regenerating axons at 4.5 mm distal to the crush injury site ([6]; vs vehicle controls): significant increase
increase of average SFI compared with SFI values at day 3 post-injury ([7]; treated immediately): 73.0%
increase of average SFI compared with SFI values at day 3 post-injury, delayed treatment ([7]; treatment delayed by 24 hours): 71.4%
